Reference: patent publication US20200247808A1, “Heterocyclic Tec-Family Kinase Inhibitors” (GB005, Inc., priority 2015, published 2020)
Entries after “also recorded” stand apart in the source; their conditions may differ. Read-outs that look alike come from different tables or passages of the source.

Tests used:
[1] = in vitro; conditions: human, liver microsomes
Method: Intrinsic liver microsomal stability was determined using cryopreserved human liver microsomes. […] Following centrifugation 100 μL of the supernatant was transferred to a 96-well plate and analyzed by LC-MS/MS using test-article specific methods. Controls included absence of microsomes or co-factors or use of heat-denatured microsomes. Intrinsic clearance was calculated using the formula: (In(% Time 0/% Time 1)/T1−T0)×Volume of incubation/protein in the incubation.

[2] = target: T1, human BTK (Homo sapiens, UniProt Q06187); experiment: BTK kinase inhibition, KinaseProfiler radiometric protein kinase assay (Eurofins); type: biochemical
T1 construct: purchased Eurofins Pharma Discovery Services UK Limited (contract assay, KinaseProfiler)
Method: In vitro potency of selected compound was defined against human BTK, EGFR, and ErbB2 kinases using Kinase Profiler radiometric protein kinase assays performed at Eurofins Pharma Discovery Services UK Limited.
Each kinase is diluted in buffer and all compounds were prepared to 50x final assay concentration in 100% DMSO. This working stock of the compound was added to the assay well as the first component in the reaction, followed by the remaining components as detailed in the assay protocol listed above. The reaction was initiated by the addition of the MgATP mix. […] (specific activity approx. 500 cpm/pmol, concentration as required) and variable test article concentrations. […] The reaction was stopped by the addition of 3% phosphoric acid solution. 10 μL of the reaction is then spotted onto a P30 filtermat and washed three times for 5 minutes in 75 mM phosphoric acid and once in methanol prior to drying and scintillation counting. In addition positive control wells contain all components of the reaction, except the compound of interest; however, DMSO (at a final concentration of 2%) were included in these wells to control for solvent effects as well as blank wells contain all components of the reaction, with a reference inhibitor replacing the compound of interest. This abolishes kinase activity and establishes the base-line (0% kinase activity remaining). The potency of each compound was reported by estimating the EC50.

[3] = Mouse plasma pharmacokinetics; type: in vivo, mouse (CD-1); conditions: male, CD-1, mouse, mice; for AUC / Cmax: free base; for bioavailability: oral 10 mg/kg vs intravenous 3 mg/kg
Method: Plasma pharmacokinetic studies were conducted in CD1 mice to compare the plasma exposure following oral and intravenous administration of the free-base form of each compound to mice and to calculate bioavailability. Male CD-1 mice (25-30 g on delivery; Charles River) were used for mouse PK studies. The mice were housed 3 per cage in a room under controlled conditions of temperature ([…]) and humidity (40-70%), with a 12 h dark/light cycle. The animals were acclimated for a minimum of 3 days prior to use and received standard rodent chow (Charles River) and municipal tap water ad libitum. Nine animals were used per study, they were dosed PO or IV and bled from the mandibular vein, 2 to 3 times per animal at the following time points; pre dose, 15 and 30 min, 1, 2, 3, 5, 7 and 24 h (0.1 mL whole blood /time point; composite PK). Blood was collected into microvette K3E tubes ([…]) at RT and then centrifuged at 5,000 RPM for 2 min at 4° C. in order to separate plasma. Isolated plasma (0.015 mL/time point) was pipetted into 96 well plates (Canadian Life Science) which were stored at minus 20° C. until analysis (2 duplicate plates per study).
Concentrations of compound in rodent plasma samples were determined by LC-MS-MS. Two standard curves containing 8 points each were prepared by spiking in methanol or plasma with a solution containing the test article at a defined concentration. The range of final compound concentration in the standard curve was 0 to 1 μg/mL. Three sets of quality control (QC) samples in plasma at low, medium and high concentration within the standard curve range were also prepared. For analysis, the compound was extracted using protein precipitation extraction procedure. Briefly, a three-fold volume of methanol containing an internal standard was added to the plasma and standard curve solution samples and then incubated at 4° C. for 5 minutes. The plates were centrifuged for 30 minutes at 4° C. at 4000 rpm and the resulting supernatant was transferred to a 96-well propylene plates and sealed with cover to avoid sample evaporation. Ten μL aliquots of extracted samples were injected using a 96-well plate autosampler held at 4° C. onto a ACE C18 50×4.6 mm, 3 um HPLC column held at 30° C. Plasma derived parent compound was eluted using the following conditions: pump flow rate was set at 1 mL/min for a five minutes chromatographic method using a 3 min gradient elution from 20% solvent A (0.1% formic acid in water) and 80% solvent B (0.1% Formic Acid in Methanol) to 10% solvent A and 90% solvent B. The method was followed by 1 min column wash at 95% solvent B and 1 min column re-equilibration back to 80% solvent B. Under these conditions the compound was eluted after 1.8 minutes. For LC-MS-MS compound detection, the curtain gas was set at 10, collision gas was set at 8, ion spray voltage was set at 4500, temperature was set at 500, ion source gas 1 was set at 40 and ion source gas 2 was set at 60. Using a positive ionization mode, the MRM transition monitored was set at […]. Under these conditions, standard curves were linear up to 2000 ng/mL, the lower limit of quantification was generally at 10 ng/mL.
The area under the curve (AUCtot and AUClast), the maximum plasma concentration (Cmax) and time (Tmax), and terminal half life (T1/2), clearance and volume of distribution were calculated by regression analysis using Kinetica version 5.0 (Thermo Fisher Scientific) using a Non-Compartmental Extravascular/IV Bolus analysis model.

[4] = system: collagen-induced arthritis; experiment: Mouse CIA (collagen-induced arthritis) model; type: in vivo, mouse (B10RIII); conditions: mice, oral gavage 10 and 30 mg/kg, BID, to RA day 12
Method: Mouse CIA model was performed using the methods described by Trentham D E, Townes A S, Kang A H. Autoimmunity to Type II Collagen: An Experimental Model of Arthritis. J Exp Med 1977; 857-868, and Bendele A M. Animal Models of Rheumatoid Arthritis. J Musculoskel Interact 2001; 377-385.
[…]. On experimental day 0 mice were anaesthetized with isoflurane and the dorsal surface was shaved. Collagen, emulsified in Freund's complete adjuvant (CFA) supplemented with additional mycobacterium tuberculosis (TB) H37Ra, was injected intradermally at the base of the tail (0.15 mL / animal; 2 mg/mL collagen and 2.5 mg/mL TB in CFA). This CFA treatment was repeated on day 15.
From day 15 to the end of the study animals were scored daily for signs of arthritis. On the first day of disease (RA Day 1) animals were recruited to the study and grouped using a balanced design based on arthritis score. Once recruited, animals were weighed and dosed twice daily by gavage (PO, BID). Recruited animals were then scored twice a week on RA days 1, 5, 8 and 12.
At the end of the study (RA day 12) animals were weighed and scored.

[5] = intravenous 3 mg/kg, read-out: Intravenous AUC
[6] = oral 10 mg/kg, read-out: Oral AUC

T1 sequence (Q06187 whole entry): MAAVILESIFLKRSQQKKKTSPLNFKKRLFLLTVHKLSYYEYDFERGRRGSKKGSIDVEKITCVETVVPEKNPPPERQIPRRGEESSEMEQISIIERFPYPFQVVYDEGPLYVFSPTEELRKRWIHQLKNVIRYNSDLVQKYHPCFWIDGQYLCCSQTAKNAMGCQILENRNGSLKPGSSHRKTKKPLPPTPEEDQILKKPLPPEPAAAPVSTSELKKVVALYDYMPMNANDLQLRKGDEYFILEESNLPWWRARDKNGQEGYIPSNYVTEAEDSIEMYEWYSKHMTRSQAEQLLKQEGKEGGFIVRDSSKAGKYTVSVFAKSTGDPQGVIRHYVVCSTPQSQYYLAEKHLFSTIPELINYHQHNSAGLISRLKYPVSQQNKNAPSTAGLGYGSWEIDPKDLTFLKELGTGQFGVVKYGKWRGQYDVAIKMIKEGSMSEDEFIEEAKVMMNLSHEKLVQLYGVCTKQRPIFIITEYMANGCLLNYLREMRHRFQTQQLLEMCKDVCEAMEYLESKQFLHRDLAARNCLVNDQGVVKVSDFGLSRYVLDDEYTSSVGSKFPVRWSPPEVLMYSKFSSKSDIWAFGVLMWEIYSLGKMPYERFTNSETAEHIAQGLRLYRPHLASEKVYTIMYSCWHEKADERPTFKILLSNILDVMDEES

Structure (SMILES)	microsomal CLint at 1 μM [1] [µL/min/mg]	IC50 [2] [nM]	AUC [3, 5] [ng·h/mL]	bioavailability [3] [%]	Cmax ([3]; oral 10 mg/kg) [ng/mL]	AUC [3, 6] [ng·h/mL]	Effect on arthritis in mouse CIA model [4]
C=CC(=O)N[C@H]1C[C@@H](n2nc(-c3ccc(Oc4ccccc4)cc3)c3c(N)ncnc32)C1 [Compound 2]	15.6	3	954	45	1350	1440	prevented the progression of arthritis; also recorded: effective in the mouse collagen-induced arthritis model
CC#CC(=O)N[C@H]1C[C@@H](n2nc(-c3ccc(Oc4ccccc4)cc3)c3c(N)ncnc32)C1 [Compound 1]	34.9	3	841	52	1280	1450	prevented the progression of arthritis; also recorded: effective in the mouse collagen-induced arthritis model
